# Reference: patent US20120070390A1, “Topical drug delivery system with dual carriers” (priority 2010, published 2012)
# Like-named read-outs stand apart in the source and are kept apart here.
# Columns and labels:
# [1] = test system: Staph aureus; test: Petri dish zone of inhibition comparison with control agents; format: cell-based, Staphylococcus aureus; conditions: FIG. 16, identical size drops (diameters of ZOA)
# [2] = test system: MRSA; test: Petri dish zone of inhibition test; format: cell-based, Methicillin Resistant Staph Aureus; conditions: FIG. 17, identical size drops (diameters of ZOA)
# [3] = test system: HL-60 cells; conditions: cited from earlier work; for subsequent retinoid-induced TGM2 expression after priming by pretreatment: HL-60 cells, short exposure
# [4] = test system: Enterococcus faecalis; test: Petri dish zone of inhibition comparison with control agents; format: cell-based; conditions: FIG. 25, identical size drops
# [5] = test system: MRSA infection and Grade I diabetic ulcer of the left hallux with cellulitus; test: Study III: human field study, diabetic foot lesion with MRSA cellulitus; format: in vivo; conditions: IV, 8 days following admission, before the invention was used
# Experimental: In this embodiment, the additional ingredient to hasten a third therapeutic tissue healing effect was added. This embodiment used vitamin D in a small but medically efficacious amount.
# [6] = Study I: vancomycin peaks and troughs in the patient; format: in vivo, human; conditions: 1.5 g BID, Q12, seven doses; ranges not noted
# Experimental: Fri 2/5: Detection of a Strep-A strain, confirmed by culture study. Shifted from gentamycin to vancomycin 1.5 g BID, Q12. Patient was kept on this dosing regimen until 2/8 (date of discharge from hospital).
# Mon 2/8: Patient received the last of seven doses of vancomycin. Throughout all of this their peaks (within 1 hour of receiving vancomycin) and troughs (before receiving vancomycin) were normal (ranges not noted here). Patient was discharged from the hospital on this date.
# [7] = test system: mouse embryonic stem cells and embryoid bodies; conditions: cited from earlier work
molecule,measurement,setting,value
CC[C@H]1OC(=O)[C@H](C)[C@@H](O[C@H]2C[C@@](C)(OC)[C@@H](O)[C@H](C)O2)[C@H](C)[C@@H](O[C@@H]2O[C@H](C)C[C@H](N(C)C)[C@H]2O)[C@](C)(O)C[C@@H](C)C(=O)[C@H](C)[C@@H](O)[C@]1(C)O [Erythromycin],zones of inhibition of control agents compared with the formulations of the invention,[1],considerably reduced zones of inhibition
same,zones of inhibition of control agents compared with the formulations of the invention,[2],considerably reduced zones of inhibition
vitamin D,subsequent retinoid-induced TGM2 expression after priming by pretreatment,[3],increases subsequent retinoid-induced TGM2 expression
same,amount at which desired cellular responses occurred,[3]; vitamin D,about 100 nM
CN[C@H](CC(C)C)C(=O)N[C@H]1C(=O)N[C@@H](CC(N)=O)C(=O)N[C@H]2C(=O)N[C@H]3C(=O)N[C@H](C(=O)N[C@H](C(=O)O)c4cc(O)cc(O)c4-c4cc3ccc4O)[C@H](O)c3ccc(c(Cl)c3)Oc3cc2cc(c3O[C@@H]2O[C@H](CO)[C@@H](O)[C@H](O)[C@H]2O[C@H]2C[C@](C)(N)[C@H](O)[C@H](C)O2)Oc2ccc(cc2Cl)[C@H]1O [Vancomycin],zones of inhibition of control agents compared with the formulations of the invention,[4],considerably reduced zones of inhibition
same,patient response to treatment,[5],did not respond
same,peaks (within 1 hour of receiving) and troughs (before receiving),[6],normal
"C[S+](C)[O-] [DMSO, dimethyl sulfoxide]",amount at which desired cellular responses occurred,[3]; DMSO,less than 2%
same,subsequent retinoid-induced TGM2 expression after priming by pretreatment,[3],increases subsequent retinoid-induced TGM2 expression
same,mRNA and protein expression in epigenetic profiles,[7],upregulation of mRNA and protein expression
CO[C@@]1(NC(=O)Cc2cccs2)C(=O)N2C(C(=O)O)=C(COC(N)=O)CS[C@@H]21 [Cefoxicillin],zones of inhibition of control agents compared with the formulations of the invention,[2],considerably reduced zones of inhibition
